The record followed here is US8075777B2, “Process for the separation of diastereomers” (E. I. du Pont de Nemours and Company, priority 2007, dated 2011).

Data set [1] can be described thus: NRTL activity model correlation of LLE data (binary interaction parameters, equation 5). It is filed as physicochemical. On the set-up: key to τ12^(0) / τ21^(0): constant term in τij = τij(0) + τij(1)/T + τij(2)T (NRTL, α=0.2). As to conditions: non-deuterated, α=0.2. An excerpt: Observed LLE data have been correlated with the NRTL (non-random two liquid) solution model as described in Shiflett, M. B. and Yokozeki, A. (Vapor-liquid-liquid equilibria of pentafluoroethane and ionic liquid [bmim][PF6] mixtures studied with the volumetric method, J. Phys. Chem. B (2006) 110:14436-14443); and in Shiflett, M. B. and Yokozeki, A. (Vapor-liquid-liquid equilibria of hydrofluorocarbons+1-butyl-3-methylimidazolium hexafluorophosphate, J. Chem. & Eng. Data (2006) 51:1931-1939).
The binary activity coefficients of the NRTL are given by:
[formula] where G12≡exp(−ατ12), and G21≡exp(−ατ21) (3)
α=0.2 (assumed to be a constant of 0.2 in this work).
xi=mole fraction of the i-th species.
The temperature-dependent binary interaction parameter (τij) is modeled here by a three term empirical equation: τ12=τ12^(0)+τ12^(1)/T+τ12^(2)T, and τ21=τ21^(0)+τ21^(1)/T+τ21^(2)T (5)
The binary LLE (L1 for liquid 1 and L2 for liquid 2) are mathematically described by the following equilibrium condition: γi^L1xi^L1=γi^L2xi^L2 (6) Thus, the two adjustable parameters τ12 and τ21 at a given T can be determined from one set of LLE experimental (volumetric method) data, using eq 6 (two nonlinearly coupled equations). We obtained several sets of such LLE data and can obtain τ12 and τ21 at respective T. Then, the empirical parameters in eq 5 were determined and are shown in Example 5, Table 5, where results for only the non-deuterated isomers with ionic liquids are given, since results for the deuterated isomer cases are similar to those in Table 5.

Data set [2] in a line: Single stage liquid-liquid extraction of HFC-4310mee with [bmim][BF4] in separatory funnel, GC analysis of upper phase. It is filed as physicochemical. As to conditions: 7.2 g HFC-4310mee feed (88.8/11.2 vol % threo/erythro) mixed with 15.1 g [bmim][BF4]. On the procedure: To evaluate this characterization, a sample of HFC-4310mee was analyzed by gas chromatography and found to contain 88.8 vol % HFC-4310mee-threo and 11.2 vol % HFC-4310mee-erythro diastereomers. A 7.2 gram sample of HFC-4310mee (i.e., the feed) was mixed with 15.1 grams of [bmim][BF4] (i.e., the extractant) in a separator funnel and vigorously mixed and then allowed to separate into two phases. […] [BF4]. The lower phase was separated from the top phase by opening the stopcock valve on the bottom of the separatory funnel and decanting off the lower phase. The remaining upper phase was analyzed by gas chromatography. The upper phase contained 91.8 vol % HFC-4310mee-threo and 8.2 vol % HFC-4310mee-erythro, which is in accordance with the ternary diagrams.

Data set [3] is classed as physicochemical. An excerpt: The separation of the erythro or threo diastereomer from a mixture thereof in HFC-4310mee involves one of the diastereomers being soluble to a greater extent in at least one ionic liquid than the other diastereomer is. In order to study this type of behavior, liquid-liquid equilibrium (LLE) and cloud point measurements on samples of HFC-4310mee were made as described in Examples 1 to 4. […]
Initially, the samples were mixed at room temperature (293.2 K) by vigorously shaking the sample containers. […] The water bath was stirred with an agitator (Arrow Engineering Co., Inc. model 1750, Hillside, N.J.) and the temperature measured with a thermocouple (Fluke Corporation, model 5211 thermometer, Everett, Wash.). The Fluke thermometer was calibrated using a standard platinum resistance thermometer (SPRT model 5699, Hart Scientific, American Fork, Utah, range 73 to 933 K) and readout (Blackstack model 1560 with SPRT module 2560). […]
The water bath temperature was initially set at about 283 K, and the sample containers were rocked back and forth. […] The mixing and measurement procedure was repeated each day and the heights plotted as a function of time until no further change in the heights was detected. […]

Data set [4] is described as follows: Cloud-point measurements / LCST of HFC-4310mee threo isomers plus ionic liquids. The class given is physicochemical. An excerpt:
Starting at ambient temperature of about 293 K, where two liquid phases existed, the temperature was lowered (20 K/h) with manual mixing in a constant temperature bath (Tamson Instruments, TV4000LT, Zoetermeer, Netherlands) until only a single phase existed. The bath temperature was calibrated with the NIST traceable SPRT mentioned previously. Achieving a single phase with the mixtures prepared using [emim][BF4] involved going to a lower temperature than was required to achieve a single phase with the mixtures prepared using [bmim][PF6] and [bmim][BF4]. In addition, the rate of decrease in temperature had to be decreased from 20 to 5 K/h with vigorous manual mixing to prevent the ionic-liquid rich phase from solidifying. Sufficient time with vigorous mixing allowed for mixtures containing 70 mole % and higher threo-H and threo-D isomers with [emim][BF4] to become a single phase at a temperature of 240 K. Once the samples were single phase the temperature was slowly raised 2 K/h until a cloud layer became visible inside the tube. The temperature was recorded for each sample when the cloud layer formed and the temperature was slowly raised until all samples had reached the cloud point.

With `F[C@H]([C@H](F)C(F)(F)C(F)(F)F)C(F)(F)F` [HFC-4310mee Erythro-H, erythro-2,3-dihydrodecafluoropentanes], in data set [1] (isomer (1)/[bmim][BF4] (2)), the “τ12^(0)” value was −1.1221, the “τ12^(1)/K” value is 1492.7 K, the “τ12^(2)/K^−1” value was 0 K^−1 and the “τ21^(0)” value turned out to be 18.7323. Further, in data set [1] (isomer (1)/[bmim][BF4] (2)), the “τ21^(1)/K” value is −3018.8 K and the “τ21^(2)/K^−1” value is −0.02457 K^−1. Besides, in data set [1] (isomer (1)/[bmim][PF6] (2)), the “τ12^(0)” value was −5.2583, the “τ12^(1)/K” value is listed as 2803.2 K, the “τ12^(2)/K^−1” value turned out to be 0 K^−1 and the “τ21^(0)” value is 2.97. For the same compound, in data set [1] (isomer (1)/[bmim][PF6] (2)), the “τ21^(1)/K” value is listed as −584.1 K and the “τ21^(2)/K^−1” value worked out at 0 K^−1. In data set [1] (isomer (1)/[emim][BF4] (2)), the “τ12^(0)” value came out at 25.6965, the “τ12^(1)/K” value is listed as −3500.0 K, the “τ12^(2)/K^−1” value was −0.03688 K^−1 and the “τ21^(0)” value amounted to 72.2927. In data set [1] (isomer (1)/[emim][BF4] (2)), the “τ21^(1)/K” value is −10850.0 K and the “τ21^(2)/K^−1” value was −0.1125 K^−1. The “Content in upper phase (extract) by gas chromatography” value in data set [2] was found to be 8.2 vol %.

For the compound `[2H]C(F)(C(F)(F)F)C([2H])(F)C(F)(F)C(F)(F)F` (stereo not drawn) [HFC-4310mee Threo-D], the “Solubility in the present ionic liquids compared with the erythro-D and erythro-H isomers” value in data set [3] was “more soluble”. The “Cloud point T/K” value in data set [4] ([bmim][BF4], 59.9 ± 0.5 mol % HFC) is on record as 311 ± 1 K; in data set [4] ([bmim][BF4], 69.4 ± 0.5 mol % HFC) it was 310 ± 1 K; in data set [4] ([bmim][BF4], 80.1 ± 0.5 mol % HFC) it was 309 ± 1 K; in data set [4] ([bmim][BF4], 89.3 ± 0.5 mol % HFC) it was 310 ± 1 K; in data set [4] ([bmim][PF6], 40.0 ± 0.5 mol % HFC), 272 ± 1 K; in data set [4] ([bmim][PF6], 50.0 ± 0.5 mol % HFC) it was 271 ± 1 K. Further, the “Cloud point T/K” value in data set [4] ([bmim][PF6], 59.7 ± 0.5 mol % HFC) amounted to 271 ± 1 K; in data set [4] ([bmim][PF6], 69.8 ± 0.5 mol % HFC), 267 ± 1 K; in data set [4] ([bmim][PF6], 79.7 ± 0.5 mol % HFC) it was 267 ± 1 K; in data set [4] ([bmim][PF6], 88.5 ± 0.5 mol % HFC), 272 ± 1 K; in data set [4] ([emim][BF4], 69.6 ± 0.5 mol % HFC), 252 ± 3 K; in data set [4] ([emim][BF4], 80.1 ± 0.5 mol % HFC) it was 261 ± 2 K. The “Cloud point T/K” value in data set [4] ([emim][BF4], 89.8 ± 0.5 mol % HFC) came out at 273 ± 1 K.

Regarding `F[C@H]([C@@H](F)C(F)(F)C(F)(F)F)C(F)(F)F` [HFC-4310mee Threo-H, threo-2,3-dihydrodecafluoropentanes], the “τ12^(0)” value in data set [1] (isomer (1)/[bmim][BF4] (2)) is on record as 91.1575; in data set [1] (isomer (1)/[bmim][PF6] (2)) it was 145.421; in data set [1] (isomer (1)/[emim][BF4] (2)), 50.3746. In addition, the “τ12^(1)/K” value is recorded as −1463.8 K in data set [1] (isomer (1)/[bmim][BF4] (2)), −22306.3 K in data set [1] (isomer (1)/[bmim][PF6] (2)) and −7994.5 K in data set [1] (isomer (1)/[emim][BF4] (2)). Moreover, the “τ12^(2)/K^−1” value in data set [1] (isomer (1)/[bmim][BF4] (2)) is listed as −0.1288 K^−1; in data set [1] (isomer (1)/[bmim][PF6] (2)), −0.2229 K^−1; in data set [1] (isomer (1)/[emim][BF4] (2)) it was −0.06965 K^−1. Besides, the “τ21^(0)” value was 81.6624 in data set [1] (isomer (1)/[bmim][BF4] (2)), −37.7767 in data set [1] (isomer (1)/[bmim][PF6] (2)) and −7.2227 in data set [1] (isomer (1)/[emim][BF4] (2)). The “τ21^(1)/K” value in data set [1] (isomer (1)/[bmim][BF4] (2)) is −1506.8 K; in data set [1] (isomer (1)/[bmim][PF6] (2)), 5492.1 K; in data set [1] (isomer (1)/[emim][BF4] (2)) it was 1138.3 K. Moreover, the “τ21^(2)/K^−1” value is given as −0.1092 K^−1 in data set [1] (isomer (1)/[bmim][BF4] (2)), 0.06485 K^−1 in data set [1] (isomer (1)/[bmim][PF6] (2)) and 0.0158 K^−1 in data set [1] (isomer (1)/[emim][BF4] (2)). Also, the “Solubility in the present ionic liquids compared with the erythro-D and erythro-H isomers” value in data set [3] is “more soluble”. The “LCST (lower critical solution temperature)” value is given as 307-309 K in data set [4] ([bmim][BF4] system, at about 75 mole %); 265-267 K in data set [4] ([bmim][PF6] system, at about 70 (threo-isomer) mole %); “about 250 K” in data set [4] ([emim][BF4] system, at near 50 mole %). Moreover, the “Cloud point T/K” value in data set [4] ([bmim][BF4], 50.0 ± 0.5 mol % HFC) came out at 311 ± 1 K; in data set [4] ([bmim][BF4], 59.1 ± 0.5 mol % HFC) it was 309 ± 1 K; in data set [4] ([bmim][BF4], 69.8 ± 0.5 mol % HFC) it was 308 ± 1 K; in data set [4] ([bmim][BF4], 79.5 ± 0.5 mol % HFC), 307 ± 1 K; in data set [4] ([bmim][BF4], 91.0 ± 0.5 mol % HFC) it was 308 ± 1 K; in data set [4] ([bmim][PF6], 40.6 ± 0.5 mol % HFC), 270 ± 1 K. For the same compound, the “Cloud point T/K” value in data set [4] ([bmim][PF6], 50.8 ± 0.5 mol % HFC) is on record as 269 ± 1 K; in data set [4] ([bmim][PF6], 60.4 ± 0.5 mol % HFC), 268 ± 1 K; in data set [4] ([bmim][PF6], 69.7 ± 0.5 mol % HFC), 265 ± 1 K; in data set [4] ([bmim][PF6], 80.0 ± 0.5 mol % HFC) it was 264 ± 1 K; in data set [4] ([bmim][PF6], 90.0 ± 0.5 mol % HFC), 276 ± 1 K; in data set [4] ([emim][BF4], 69.8 ± 0.5 mol % HFC), 250 ± 3 K. The “Cloud point T/K” value is on record as 260 ± 2 K in data set [4] ([emim][BF4], 80.0 ± 0.5 mol % HFC) and 268 ± 1 K in data set [4] ([emim][BF4], 90.1 ± 0.5 mol % HFC). Further, the “Content in upper phase (extract) by gas chromatography” value in data set [2] is 91.8 vol %.
